Data reported in patent EP4578855A1, “PROLYL HYDROXYLASE INHIBITOR AND USE THEREOF” (Suzhong Pharmaceutical Group Co., Ltd., priority 2022, dated 2024).

Assay: Pharmacokinetic evaluation after intravenous injection or intragastric administration, plasma LC-MS/MS
Format: in vivo, SD rats
Excerpt: After the compounds were given to SD rats by intravenous injection or intragastric administration, concentrations of related compounds in plasma were detected by an LC-MS/MS method, and pharmacokinetics and absolute bioavailability of the compounds prepared in Embodiments 13 and 14 in the rats were preliminarily evaluated.
2. Line: Sprague Dawley rats, sex: male, weight: 200 g to 250 g
Pharmacokinetic characteristics of rodents after intravenous injection and oral administration of the compounds were tested by a standard scheme. In the experiment, a candidate compound was prepared into a clear solution, and given to the rats by single intravenous injection and intragastric administration. A solvent for intravenous injection was a certain proportion of N,N-dimethylacetamide (DMA) and 10% Solutol HS15 solution, and a solvent for oral administration was a certain proportion of sodium carboxymethyl cellulose (CMC) suspension. 5 minutes, 15 minutes, 30 minutes, 1 hour, 2 hours, 4 hours, 6 hours, 8 hours, 10 hours and 24 hours after drug administration, blood samples of the animals were respectively collected into K2EDTA anticoagulation tubes, which were temporarily stored on ice until centrifugation.

[1] = SD rats, in words, compared with Enarodustat in the table

**Q.** What does the source list for O=C(O)CNC(=O)c1c(O)cc(C2CCc3ccccc3C2)n2ncnc12 (single isomer, unassigned) [Compound in Embodiment 13, [(7-hydroxy-5-(1,2,3,4-tetrahydronaphthalene-2-yl)-[1,2,4]triazolo[1,5-a]pyridine-8-carbonyl)amino]acetic acid]?
**A.** half-lives [1]: obviously longer; in-vivo exposure [1]: higher; AUC (male, Sprague-Dawley, rat, plasma, male SD rats, route and dose not given, read-out: Concentration integral AUC): 19100 ng·h/mL; half-life (male, Sprague-Dawley, rat, plasma, male SD rats, route and dose not given, read-out: Half-life period T1/2 (converted)): 2.02 h; bioavailability (male, Sprague-Dawley, rat, plasma, oral, male SD rats, intragastric vs intravenous, read-out: Bioavailability F): 29.4%
